Patent US20050084524A1, “Method for potentiating activity of a chemotherapeutic drug” (ALZA Corporation, priority 1998, published 2005)
Marks after values point to notes of the source that are not given here.

Legend:
MDA453 xenografts [1] = assay: MDA453 human breast cancer xenograft, doxorubicin study 4; format: in vivo, mice
Procedure: (§1) 1. BT474 and MDA453 Cells: The BT474 and MDA453 tumors were each inoculated from cultured cells in exponential growth. Cells were trypsinized, collected and washed in media. Cells were counted by hemacytometer, spun down and resuspended in media at 50 million cells per milliliter of media. Resuspended cells were chilled, then mixed with an equal volume of Matrigel. Cells (5 million cells per 0.2 ml injection volume, continuously mixed) were drawn into individual, chilled syringes for subcutaneous injection into the dorsum of each animal.
Immune deficient mice were used in all experiments. Study numbers 1, 2, 3 and 4 were conducted in homozygous nude female mice. […]
(§2) Animals were weighed prior to inoculation of tumors and at least weekly thereafter. Tumors were measured twice weekly throughout the experiment, beginning 6-8 days after tumor inoculation. Tumor measurements were made by digital caliper in 3 dimensions and the volume recorded as one-half the product of these measurements. […]
(§3) Tumor volumes, measured repeatedly throughout the experiments, were used for analysis as correlated information. […] All tumor volumes were log transformed, with z=log10(y+1) where y is the calculated tumor volume, thus when y=0, z is meaningful and z=0. Log growth rates for transformed values, z, for each treatment group within each experiment were calculated and compared in linear regression. […]

B585 xenografts = assay: B585 primary human breast cancer xenograft, doxorubicin study 5; format: in vivo, mice; settings: doxorubicin HCl or liposome-entrapped 4 mg/kg iv once/week x3, anti-HER2 antibody 3 mg/kg ip twice/week x6
Procedure: 2. […] Resuspended cells were chilled, then mixed with an equal volume of Matrigel. Cells (5 million cells per 0.2 ml injection volume, continuously mixed) were drawn into individual, chilled syringes for subcutaneous injection into the dorsum of each animal.
Immune deficient mice were used in all experiments. Study numbers 1, 2, 3 and 4 were conducted in homozygous nude female mice. Study number 5 was conducted in homozygous ICR scid female mice. All mice were obtained at the age of four weeks and acclimated for a minimum of 1 week prior to tumor inoculation. All mice were ear tagged for individual identification during acclimation. […]
as §2, §3

BT474 xenografts [2] = assay: BT474 human breast cancer xenograft, doxorubicin studies 1-3; format: in vivo, mice
Procedure: In study numbers 1, 2 and 3 immune-deficient mice were inoculated by subcutaneous injection into the dorsum with 5 million BT474 cells in 0.1 mL added to an equal volume of Matrigel for an inoculation volume of 0.2 mL. The inoculated mice were divided into six treatment groups of 12 mice each, prior to inoculation. Treatment was initiated when the average tumor volume was 100 mm^3, which occurred approximately 7-10 days after inoculation.
Saline, doxorubicin and liposome-entrapped doxorubicin were administered by intravenous injection for three treatments. […] The animals were monitored daily and the tumors were measured in three dimensions twice weekly over the study period.
as §1
Immune deficient mice were used in all experiments. Study numbers 1, 2, 3 and 4 were conducted in homozygous nude female mice. Study number 5 was conducted in homozygous ICR scid female mice. All mice were obtained at the age of four weeks and acclimated for a minimum of 1 week prior to tumor inoculation. All mice were ear tagged for individual identification during acclimation. For each study, 75 mice were inoculated with tumors to supply 72 study animals at treatment.
(§4) Animals were weighed prior to inoculation of tumors and at least weekly thereafter. Tumors were measured twice weekly throughout the experiment, beginning 6-8 days after tumor inoculation. Tumor measurements were made by digital caliper in 3 dimensions and the volume recorded as one-half the product of these measurements. Any animal observed to have 15% or greater weight loss from the initial starting weight was immediately euthanized by inhalation of 100% carbon dioxide. Any animal observed to have greater than 4,000 mm^3 tumor volume was immediately euthanized by inhalation of 100% carbon dioxide.
Animals were divided into 6 treatment groups prior to inoculation of tumors. […] Treatment was initiated when average tumor volume was 100 mm^3 (approximately 7-10 days after inoculation).
Tumor volumes, measured repeatedly throughout the experiments, were used for analysis as correlated information. Since tumor growth over time after treatment was of interest, repeated measurement analysis for each treatment group was performed. All tumor volumes were log transformed, with z=log10(y+1) where y is the calculated tumor volume, thus when y=0, z is meaningful and z=0. Log growth rates for transformed values, z, for each treatment group within each experiment were calculated and compared in linear regression. If the log growth rate is positive for a certain treatment, this means that the tumors still grow even after receiving the drug; if the log growth rate is negative, this means that the tumors begin to shrink after receiving the drug; if the log growth rate is 0, then the tumors stop growing after receiving the drug. A p-value of 0.05 or less is statically significant.

A431 tumor = A431 tumor xenograft implanted subcutaneously in nude mice, tumor volume; format: in vivo
Excerpt: In studies performed in support of the invention, a xenograft of the A431 tumor was implanted subcutaneously in nude mice. […] The liposomes included a vesicle-forming lipid derivatized with the hydrophilic polymer polyethyleneglycol.

MDA453 xenografts [3] = assay: MDA453 human breast cancer xenograft, cisplatin study 8; format: in vivo, mice
Procedure: (§5) Two separate HER2-overexpressing human breast cancer xenograft models were utilized: BT474 and MDA453. The BT474 or MDA453 tumors were inoculated from cultured cells in exponential growth. Cells were trypsinized, collected and washed in media. Cells were counted by hemacytometer, spun down and resuspended in media at 50 million cells per milliliter of media (5 million cells per 0.1 ml injection volume). Resuspended cells were chilled, then mixed in an equal volume of Matrigel. Cells (0.2 ml, continuously mixed) were drawn into individual, chilled syringes for subcutaneous injection into the dorsum of each animal.
(§6) Immune-deficient female mice (NCR.nu/nu, Taconic Farms, Germantown, N.Y.) were obtained from the vendor and acclimated for at least 7 days prior to initiation of experiments. Animals were housed in microisolator caging (Thoren Caging, Hazelton, Pa.) with ad lib gamma irradiated rodent food and autoclaved, acidified water. Lights were set for 12:12 light: dark cycle. All animals received a 0.72 mg estradiol 17β sustained release pellet (Innovative Research of America, Sarasota, Fla.) by subcutaneous injection 24 hours prior to tumor inoculation. Animals were randomized into treatment groups prior to inoculation of tumors.
as §2, with “one half” for “one-half”
Tumor volumes, measured repeatedly throughout experiments, were used for analysis as correlated information. […] Growth rates (slope) for each treatment group within each experiment were calculated and compared in linear regression. […]
(§7) Tumor size at specific times after treatment was compared between treated and control groups. Tumor growth inhibition was reported as % T/C which is the tumor size of each treated group divided by the control group, expressed as a percentage.

BT474 xenografts [4] = assay: BT474 human breast cancer xenograft, cisplatin studies 6-7; format: in vivo, mice
Procedure: In Study No. 6, mice were inoculated with BT474 cells.
The animals were dosed as described in Example 2, with the saline and chemotherapeutic agent administered intravenously once per week and the biological agent administered intraperitoneally twice per week.
as §5, §6
as §4, with “one half” for “one-half”, “euthanized.” for “euthanized by inhalation of 100% carbon dioxide.”
(§8) Animals were divided into 6 treatment groups (12 animals each) prior to inoculation of tumors in all experiments.
All treatments were administered for 3 weekly cycles. Treatment was initiated when average tumor volume was 75 mm^3 (approximately 6-10 days after inoculation).
Tumor volumes, measured repeatedly throughout experiments, were used for analysis as correlated information. Since tumor growth over time after treatment was of interest, repeated measurement analysis for each treatment group was performed. Growth rates (slope) for each treatment group within each experiment were calculated and compared in linear regression. If the growth rate was positive for a certain treatment, tumors were still growing even after receiving the drug; if the growth rate is negative, tumors began to shrink after receiving the drug; if the growth rate is 0, tumors stop growing after receiving the drug. A p-value of 0.05 or less is considered significant.
as §7

[5] = Maximum tolerated dose (MTD) in immune-deficient mice; format: in vivo; settings: once weekly, intravenous
Excerpt: as §8

## COc1cccc2c1C(=O)c1c(O)c3c(c(O)c1C2=O)C[C@@](O)(C(=O)CO)C[C@@H]3O[C@H]1C[C@H](N)[C@H](O)[C@H](C)O1 [doxorubicin]
MDA453 xenografts [1]; MDA453, doxorubicin HCl or liposome-entrapped 5 mg/kg iv once/week x3, anti-HER2 antibody 5 mg/kg ip twice/week x6
  Log Growth Rate, Study No. 4: 0.020^a
MDA453 xenografts [1]; Study No. 4, MDA453, doxorubicin 5 mg/kg, liposomal 5 mg/kg, antibody 5 mg/kg
  tumor volume over treatment period (FIGS. 5A-5B), in words: continual increase in tumor volume
B585 xenografts
  Log Growth Rate, Study No. 5: 0.052
BT474 xenografts [2]; BT474, doxorubicin HCl 4 mg/kg or liposome-entrapped 3 mg/kg iv once/week x3, anti-HER2 antibody 10 mg/kg ip twice/week x6
  Log Growth Rate, Study No. 1: 0.027
BT474 xenografts [2]; BT474, doxorubicin HCl or liposome-entrapped 3 mg/kg iv once/week x3, anti-HER2 antibody 1 mg/kg ip twice/week x6
  Log Growth Rate, Study No. 3: 0.011^a
BT474 xenografts [2]; BT474, doxorubicin HCl or liposome-entrapped 5 mg/kg iv once/week x3, anti-HER2 antibody 3 mg/kg ip twice/week x6
  Log Growth Rate, Study No. 2: 0.010^a
BT474 xenografts [2]; Study No. 1, BT474, doxorubicin 4 mg/kg, liposomal 3 mg/kg, antibody 10 mg/kg
  tumor volume over treatment period (FIGS. 2A-2B), in words: continual tumor growth
BT474 xenografts [2]; Study No. 2, BT474, doxorubicin 5 mg/kg, liposomal 5 mg/kg, antibody 3 mg/kg
  tumor volume over treatment period (FIGS. 3A-3B), in words: reduced tumor volume relative to the control animals
BT474 xenografts [2]; Study No. 3, BT474, doxorubicin 3 mg/kg, liposomal 3 mg/kg, antibody 1 mg/kg
  tumor volume over treatment period (FIGS. 4A-4B), in words: fared better than the untreated animals
A431 tumor; 40 days following tumor implantation
  Tumor Volume at 40 days: 1700 mm^3
A431 tumor; 60 days following tumor implantation
  Tumor Volume at 60 days: 3650 mm^3
A431 tumor; treatment from day 6
  tumor volume as a function of time (FIG. 1), in words: still an increase in tumor size but to a lesser extent

## N.N.[Cl][Pt][Cl] [Cisplatin, cisplatin]
MDA453 xenografts [3]; Day 33, MDA453, cisplatin 4 mg/kg, antibody 1 mg/kg, control saline
  Size of treated tumors as a function of size of control tumors, % T/C, Study No. 8: 56.1 % T/C
MDA453 xenografts [3]; Study No. 8, MDA453, cisplatin 4 mg/kg, antibody 1 mg/kg
  tumor volume over treatment period (FIGS. 9A-9B), in words: continual tumor growth
MDA453 xenografts [3]; cisplatin or liposome-entrapped cisplatin 4 mg/kg iv once/week x3, anti-HER2 antibody 1 mg/kg ip twice/week x6
  Growth rate of tumors (slope), Study No. 8 MDA453: 19.84^e
BT474 xenografts [4]; Day 44, BT474, cisplatin 6 mg/kg, antibody 3 mg/kg, control saline
  Size of treated tumors as a function of size of control tumors, % T/C, Study No. 6: 10.0 % T/C
BT474 xenografts [4]; Day 49, BT474, cisplatin 4 mg/kg, antibody 0.5 mg/kg, control saline
  Size of treated tumors as a function of size of control tumors, % T/C, Study No. 7: 41.7 % T/C
BT474 xenografts [4]; Study No. 6, BT474, cisplatin 6 mg/kg, antibody 3 mg/kg
  tumor volume over treatment period (FIGS. 7A-7B), in words: fared considerably better than the untreated animals
BT474 xenografts [4]; Study No. 7, BT474, cisplatin 4 mg/kg, antibody 0.5 mg/kg
  tumor volume over treatment period (FIG. 8), in words: continual tumor growth
BT474 xenografts [4]; cisplatin or liposome-entrapped cisplatin 4 mg/kg iv once/week x3, anti-HER2 antibody 0.5 mg/kg ip twice/week x6
  Growth rate of tumors (slope), Study No. 7 BT474: 14.35^b
BT474 xenografts [4]; cisplatin or liposome-entrapped cisplatin 6 mg/kg iv once/week x3, anti-HER2 antibody 3 mg/kg ip twice/week x6
  Growth rate of tumors (slope), Study No. 6 BT474: 1.02
[5]
  MTD: 6 mg/kg
